Measurements: patent US20110118269A1, “FUSED PYRAZINE COMPOUNDS AS THEIR SALTS, USEFUL FOR THE TREATMENT OF DEGENERATIVE AND INFLAMMATORY DISEASES” (priority 2009, published 2011)
Converted amounts (≈) assume the structure as drawn.

Key:
[1] = test system: MMP1 expression by synovial fibroblasts; assay: 'MMP assay': complex trigger induced MMP1 expression by RASFs, compound testing; format: cell-based; details: Homo sapiens, Fibroblast, 48 hrs
Procedure: A 384-well format ELISA for measurement of MMP1 is developed. Various primary antibodies are tested, as well as various ELISA protocols. The following protocol is developed and validated to measure MMP1 levels in SF supernatant in 384 well plates: white Lumitrac 600 384 well plates (Greiner) are coated with 2 μg/mL anti-MMP1 antibody MAB1346 (Chemicon). The antibody is diluted in buffer 40 (1.21 g Tris base (Sigma), 0.58 g NaCl (Calbiochem) and 5 mL 10% NaN3 (Sigma) in 1 L milliQ water and adjusted to pH 8.5). After overnight incubation at 4° C., plates are washed with PBS (80 g NaCl, 2g KCl (Sigma), 11.5 g Na2HPO4.7H2O and 2 g KH2PO4 in 10 L milliQ; pH 7.4) and blocked with 100 μL/well Casein buffer (2% Casein (VWR International) in PBS). Next day, casein buffer is removed from ELISA plates and replaced by 50 μL/well EC buffer (4 g casein, 2.13 g Na2HPO4 (Sigma), 2 g bovine albumin (Sigma), 0.69 g NaH2PO4.H2O (Sigma), 0.5 g CHAPS (Roche), 23.3 g NaCl, 4 mL 0.5 M EDTA pH 8 (Invitrogen), 5 mL 10% NaN3 in 1 L milliQ and adjusted to pH 7.0). 0.25 mM DTT (Sigma) is added to the thawed samples plates. After removal of the EC buffer, 20 μL of sample is transferred to the ELISA plates. […] Readout is performed on the Luminoscan Ascent Luminometer (Labsystems) with an integration time of 200 msec or with an Envision reader (Perkin Elmer). […]

[2] = test system: Collagen-Induced Arthritis model; assay: CIA model; format: in vivo, mouse; details: 3 or 30 mg/kg/d, daily for 14 days
Procedure: Complete Freund Adjuvant/Collagen II (CFA/Coll II, bovine) is injected (1 mg/mL, 100 μL per animal) into the tail (intradermic) at the start of the experiment. Incomplete Freund Adjuvant /Collagen II (IFA/Coll II) is injected into the tail at the same level (1 mg/mL, 100 μL per animal) 21 days after CFA/Coll II injection. Animals are then randomized based on score and assigned to treatment groups assuring an equal distribution of score in the different groups. Treatment with either the test compound (1 mg/kg/d, 3 mg/kg/d or 30 mg/kg/d), positive control (Enbrel, 10 mg/kg/3× week, ip) or vehicle (Methyl Cellulose, 1% DMSO) starts at day 8 post IFA/Coll II-boost (i.e. […] of the experiment). Animals are dosed daily with the test compound, positive control or vehicle for 14 days. The animals are scored daily for clinical symptoms, scoring is reported for the individual paws. During the treatment period the body weight of the animals is monitored. Bone protection is analysed by x-ray imaging.

[3] = Aqueous solubility determination (Example 4); format: physicochemical
Procedure: Each salt is suspended in water and shaken for 24 h at 22° C. and 400 rpm. The resulting suspensions are filtered (0.2-μm filter). The obtained solids are analyzed by FT Raman. The pH of the filtrate is measured, and the concentration of the free base is determined by HPLC.

[4] = Thermodynamic aqueous solubility study by HPLC (Example 5); format: physicochemical; details: thermodynamic from solid
Excerpt: Quantitation is done by HPLC with reference to a standard calibration curve. […] If there is sufficient solid remaining, the XRPD is collected.

Filtrate pH ([3]; filtrate of the aqueous suspension after 24 h): 6.9 | solubility at 24 h ([3]; thermodynamic from solid, water, shaken 24 h at 22° C., free base concentration by HPLC, read-out: Measured solubility): 70 µg/mL (≈ 153 µM) | solubility ([4]; buffer pH 2.0, pH 2, aqueous buffer): 300 µg/mL (≈ 654 µM) | solubility ([4]; buffer pH 7.4, pH 7.4, aqueous buffer): 10 µg/mL (≈ 21.8 µM) | solubility ([4]; pure water, water): 10 µg/mL (≈ 21.8 µM)
Compound: CC(C)N1C[C@@H]2C[C@H]1CN2c1ccc(Nc2ncc(-c3coc(C(N)=O)c3)n3ncnc23)cc1 [Compound 1, 4-{8-[4-((1S,4S)-5-Isopropyl-2,5-diaza-bicyclo[2.2.1]hept-2-yl)-phenylamino]-[1,2,4]triazolo[1,5-a]pyrazin-5-yl}-furan-2-carboxamide]
IC50 [1]: 100 to 1000 nM | efficacy in CIA model [2]: efficacious
